# In ChEMBL document CHEMBL1201862, “PubChem BioAssay data set” (2004):
# The source made the active and inactive calls.
# Tests used:
# cells = format: functional, cell-based
# HEK293 = test: EBV LMP1 TES2 canonical NF-kB signalling blockers – cell-based, HEK293, luciferase, cherry-pick, dose response (AID 588343); format: functional; conditions: Homo sapiens
# [1] = target: T1, Nuclear receptor subfamily 0 group B member 1 (Homo sapiens, UniProt P51843); format: functional, cell-based;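 also: HEK293T cells transfected with SF-1 and DAX-1 plus StAR promoter luciferase reporter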
# T1 sequence (P51843 whole entry): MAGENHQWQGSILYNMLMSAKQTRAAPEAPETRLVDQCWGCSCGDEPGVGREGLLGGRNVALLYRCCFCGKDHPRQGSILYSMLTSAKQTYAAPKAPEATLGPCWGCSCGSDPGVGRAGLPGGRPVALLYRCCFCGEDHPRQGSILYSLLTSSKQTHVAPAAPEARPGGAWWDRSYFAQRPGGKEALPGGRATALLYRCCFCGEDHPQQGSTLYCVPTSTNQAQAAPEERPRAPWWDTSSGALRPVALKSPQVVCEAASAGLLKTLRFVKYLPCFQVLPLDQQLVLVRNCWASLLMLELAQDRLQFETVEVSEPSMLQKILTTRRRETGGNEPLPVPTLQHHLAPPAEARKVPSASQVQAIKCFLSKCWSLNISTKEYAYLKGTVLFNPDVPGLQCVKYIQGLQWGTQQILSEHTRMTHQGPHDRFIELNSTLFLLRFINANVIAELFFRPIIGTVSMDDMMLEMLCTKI
# Escherichia coli = test: microbe, parasite or virus in culture
# [2] = system: Streptococcus sp. 'group A'; test: Streptococcus pyogenes SK(-)GAS viability under kanamycin – luminescence, BacTiterGlo, confirmation, counter-screen for streptokinase expression inhibitor project, dose response (AID 1900); format: functional, organism-based
# [3] = Luminescence Cell-Based Dose Confirmation HTS to Identify Activators of 5'UTR Stem-Loop Driven Alpha-Synuclein mRNA Translation in H4 Neuroglioblastoma Cells. [Related pubchem assays: 1829 (Project Summary), 1814 (Primary HTS)]; format: functional
# A-375 [4] = test: MITF: Counter assay: A375 proliferation Measured in Cell-Based System Using Plate Reader - 2084-03_Inhibitor_Dose_DryPowder_Activity. [Related pubchem assays (depositor defined):AID488944]; format: functional; conditions: Homo sapiens
# Streptococcus = test: GAS UMAA2166 growth inhibition – luminescence, BacTiterGlo, counter-screen for streptokinase expression inhibitor project, dose response (AID 1915); format: functional, organism-based;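 also: potency for reduction of bacterial viability or growth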
# [5] = Luminescence Cell-Based Dose Response HTS to Identify Activators of Luciferase Translation or Activity in H4 […] Cells. [Related pubchem assays: 1829 (Project Summary), 1814 (Primary HTS)]; format: functional
# A-375 [6] = test: proliferation inhibition in MITF-low A375 cells – cell-based, cherry-pick samples, set 2, counter-screen for MITF modulator project, dose response (AID 540335); format: functional; conditions: Homo sapiens
# Streptokinase A = target: T2, Streptokinase A (Streptococcus pyogenes serotype M1, UniProt P10520); test: viability-normalized secreted streptokinase activity reduction – plasminogen activation absorbance, OD405, dose response (AID 1914); format: functional, Streptococcus pyogenes M1 GAS;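 also: secreted streptokinase activity via plasminogen activation per viability signal from cell pellet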
# T2 sequence (P10520 whole entry): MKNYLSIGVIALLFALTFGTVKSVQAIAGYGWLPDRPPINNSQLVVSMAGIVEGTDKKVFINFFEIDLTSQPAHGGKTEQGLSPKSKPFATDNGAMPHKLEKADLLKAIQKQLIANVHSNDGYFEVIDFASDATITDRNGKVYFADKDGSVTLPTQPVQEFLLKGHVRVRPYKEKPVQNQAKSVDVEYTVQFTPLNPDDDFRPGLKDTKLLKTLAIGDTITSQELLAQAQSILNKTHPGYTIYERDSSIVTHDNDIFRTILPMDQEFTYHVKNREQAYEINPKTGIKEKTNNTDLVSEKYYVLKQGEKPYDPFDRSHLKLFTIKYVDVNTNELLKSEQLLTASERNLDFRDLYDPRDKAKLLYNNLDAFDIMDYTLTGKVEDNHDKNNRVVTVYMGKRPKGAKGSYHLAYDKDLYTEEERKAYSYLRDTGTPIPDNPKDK
# [7] = target: Beta-2 adrenergic receptor (Homo sapiens, UniProt P07550); test: ADRB2 activation measured by internalization – cell-based, FAP fluorogen, flow cytometry, cherry pick 1, dose response (AID 588763); format: functional
# Chain of Beta-2 adrenergic receptor (P07550 whole entry): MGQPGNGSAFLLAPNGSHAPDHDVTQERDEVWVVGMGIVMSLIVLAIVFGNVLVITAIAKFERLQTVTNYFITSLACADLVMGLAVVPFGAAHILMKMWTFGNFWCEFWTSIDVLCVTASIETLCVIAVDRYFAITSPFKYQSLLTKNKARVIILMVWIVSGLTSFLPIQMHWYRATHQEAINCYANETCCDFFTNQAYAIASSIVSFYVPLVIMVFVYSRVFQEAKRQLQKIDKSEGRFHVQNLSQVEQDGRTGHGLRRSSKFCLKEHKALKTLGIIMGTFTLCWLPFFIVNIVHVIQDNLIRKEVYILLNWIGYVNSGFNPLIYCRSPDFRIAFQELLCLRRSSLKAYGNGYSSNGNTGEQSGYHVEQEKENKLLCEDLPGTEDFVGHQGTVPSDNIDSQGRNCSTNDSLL
compound,measurement,setting,value
CN(C)c1cccc(C(=O)N/N=C/c2ccccc2F)c1,IC50,cells,> 67.6 µM (inactive)
same,AC50,HEK293,3.75 µM (active)
same,IC50,[1],> 67.6 µM (inactive)
same,AC50,Escherichia coli,134 µM (active)
Nc1nc2ccccc2n1/N=C/c1ccc(-c2ccccc2)o1,EC50,[2],5.7 µM (active)
same,EC50,[3],24.4 µM (active)
same,AC50,A-375 [4],> 35 µM (active)
same,EC50,Streptococcus,> 150 µM (not active)
same,EC50,[5],51.3 µM (active)
same,AC50,A-375 [6],> 35 µM (active)
same,EC50,Streptokinase A,> 150 µM (not active)
Cc1ccc(CNC(=O)CCCCn2c(=O)[nH]c3ccsc3c2=O)cc1,EC50,[7],10.7 µM (inactive)
